In patent US20120121591A1 (priority 2009, published 2012):
Like-named read-outs stand apart in the source and are kept apart here.

Key:
Type in all cases: cell-based
[1] = biological target: hKv1.3 (Homo sapiens, UniProt P22001); assay: cell-based; settings: Kv1.3 (IWQ) IC50 (nM, Avg)
[2] = system: IFN-g secretion from T cells in human whole blood
[3] = system: IL-2 secretion from T cells in human whole blood; settings: read-out: WB (IL-2) IC50 (nM, Avg)
[4] = read-out: WB (IFNg) IC50 (nM, Avg)

Chain of hKv1.3 (P22001 whole entry): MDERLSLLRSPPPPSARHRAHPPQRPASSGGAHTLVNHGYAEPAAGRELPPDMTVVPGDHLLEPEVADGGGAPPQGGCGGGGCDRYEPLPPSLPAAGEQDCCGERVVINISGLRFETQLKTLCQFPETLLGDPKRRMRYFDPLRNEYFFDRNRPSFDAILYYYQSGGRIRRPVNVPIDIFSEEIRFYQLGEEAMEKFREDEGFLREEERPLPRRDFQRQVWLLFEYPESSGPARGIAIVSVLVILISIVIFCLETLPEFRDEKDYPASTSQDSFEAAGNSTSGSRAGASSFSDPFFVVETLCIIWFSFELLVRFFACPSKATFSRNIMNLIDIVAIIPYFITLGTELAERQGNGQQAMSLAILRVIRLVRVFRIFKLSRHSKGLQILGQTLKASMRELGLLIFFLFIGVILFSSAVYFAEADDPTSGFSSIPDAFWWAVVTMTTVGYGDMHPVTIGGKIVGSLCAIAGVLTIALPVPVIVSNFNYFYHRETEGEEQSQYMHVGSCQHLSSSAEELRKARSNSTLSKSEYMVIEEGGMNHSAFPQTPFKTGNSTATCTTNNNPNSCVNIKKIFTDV

Row | Compound | IC50 [1] [nM] | IC50 [2, 4] [nM] | IC50 [3] [nM] | IC50 ([2]; read-out: WB (IFNg) IC5- (nM, Avg)) [nM]
1 | CC[C@H](C)[C@@H]1NC(=O)[C@@H](NC(=O)[C@H](CO)NC(=O)[C@@H](N)CCCNC(=N)N)CSSC[C@@H](C(=O)O)NC(=O)[C@H]([C@@H](C)O)NC(=O)CNC(=O)[C@@H]2CSSC[C@@H]3NC(=O)[C@H](CCCNC(=N)N)NC(=O)[C@H](Cc4ccccc4)NC(=O)[C@H](C)NC(=O)[C@H]([C@@H](C)O)NC(=O)[C@H](CSSC[C@H](NC(=O)[C@H](Cc4ccccc4)NC(=O)[C@H](CO)NC(=O)[C@H](CC(C)C)NC(=O)[C@H](CCCNC(=N)N)NC(=O)[C@H](Cc4ccc(O)cc4)NC(=O)[C@H](CCCCN)NC(=O)[C@H](CCSC)NC(=O)[C@H](CO)NC(=O)[C@H](Cc4c[nH]cn4)NC(=O)[C@H](CCCCN)NC3=O)C(=O)N[C@@H](CCCNC(=N)N)C(=O)N[C@@H](CCCCN)C(=O)N[C@@H]([C@@H](C)O)C(=O)N2)NC(=O)[C@H](CCCNC(=N)N)NC(=O)[C@H](CO)NC(=O)[C@H](CCCCN)NC(=O)[C@@H]2CCCN2C(=O)[C@H]([C@@H](C)CC)NC(=O)[C@H]([C@@H](C)O)NC(=O)[C@H](CC(=O)O)NC1=O [[Arg16]ShK] | 0.164 | 0.818 | 0.652 | –
2 | CC[C@H](C)[C@@H]1NC(=O)[C@@H](NC(=O)[C@H](CO)NC(=O)[C@@H](N)CCCNC(=N)N)CSSC[C@@H](C(N)=O)NC(=O)[C@H]([C@@H](C)O)NC(=O)CNC(=O)[C@@H]2CSSC[C@@H]3NC(=O)[C@H](CCCCN)NC(=O)[C@H](Cc4ccccc4)NC(=O)[C@H](C)NC(=O)[C@H]([C@@H](C)O)NC(=O)[C@H](CSSC[C@H](NC(=O)[C@H](Cc4ccccc4)NC(=O)[C@H](CO)NC(=O)[C@H](CC(C)C)NC(=O)[C@H](CCCNC(=N)N)NC(=O)[C@H](Cc4ccc(O)cc4)NC(=O)[C@H](CCCCN)NC(=O)[C@H](CCSC)NC(=O)[C@H](CO)NC(=O)[C@H](Cc4c[nH]cn4)NC(=O)[C@H](CCCNC(=N)N)NC3=O)C(=O)N[C@@H](CCCCN)C(=O)N[C@@H](CCCNC(=N)N)C(=O)N[C@@H]([C@@H](C)O)C(=O)N2)NC(=O)[C@H](CCCNC(=N)N)NC(=O)[C@H](CO)NC(=O)[C@H](CCCCN)NC(=O)[C@@H]2CCCN2C(=O)[C@H]([C@@H](C)CC)NC(=O)[C@H]([C@@H](C)O)NC(=O)[C@H](CC(=O)O)NC1=O [[Lys16, 29;Arg18,30]ShK-amide] | 0.401 | 0.242 | 0.26 | –
3 | CCC[C@@H]1NC(=O)[C@H](CO)NC(=O)[C@H](Cc2c[nH]cn2)NC(=O)[C@H](CCCCN)NC(=O)[C@@H]2CSSC[C@@H]3NC(=O)[C@H]([C@@H](C)O)NC(=O)[C@H](CCCCN)NC(=O)[C@H](CCCNC(=N)N)NC(=O)[C@H](CSSC[C@H](NC(=O)[C@H](CCCNC(=N)N)NC(=O)[C@H](CO)NC(=O)[C@H](CCCCN)NC(=O)[C@@H]4CCCN4C(=O)[C@H]([C@@H](C)CC)NC(=O)[C@H]([C@@H](C)O)NC(=O)[C@H](CC(=O)O)NC(=O)[C@H]([C@@H](C)CC)NC(=O)[C@@H](NC(=O)[C@H](CO)NC(=O)[C@@H](N)CCCNC(=N)N)CSSC[C@@H](C(=O)N[C@@H](C)C(N)=O)NC(=O)[C@H]([C@@H](C)O)NC(=O)CNC3=O)C(=O)N[C@@H]([C@@H](C)O)C(=O)N[C@@H](C)C(=O)N[C@@H](Cc3ccccc3)C(=O)N[C@@H](CCCCN)C(=O)N2)NC(=O)[C@H](Cc2ccccc2)NC(=O)[C@H](CO)NC(=O)[C@H](CC(C)C)NC(=O)[C@H](CCCNC(=N)N)NC(=O)[C@H](Cc2ccc(O)cc2)NC(=O)[C@H](CCCCN)NC1=O [[Lys16,Nva21]ShK-Ala-amide] | 0.08 | 1.46 | 0.431 | –
4 | CC[C@H](C)[C@@H]1NC(=O)[C@@H](NC(=O)[C@H](CO)NC(=O)[C@@H](N)CCCNC(=N)N)CSSC[C@@H](C(=O)O)NC(=O)[C@H]([C@@H](C)O)NC(=O)CNC(=O)[C@@H]2CSSC[C@@H]3NC(=O)[C@H](CCC(N)=O)NC(=O)[C@H](Cc4ccccc4)NC(=O)[C@H](C)NC(=O)[C@H]([C@@H](C)O)NC(=O)[C@H](CSSC[C@H](NC(=O)[C@H](Cc4ccccc4)NC(=O)[C@H](CO)NC(=O)[C@H](CC(C)C)NC(=O)[C@H](CCCNC(=N)N)NC(=O)[C@H](Cc4ccc(O)cc4)NC(=O)[C@H](CCCCN)NC(=O)[C@H](CCSC)NC(=O)[C@H](CCC(=O)O)NC(=O)[C@H](Cc4c[nH]cn4)NC(=O)[C@H](CCCCN)NC3=O)C(=O)N[C@@H](CCCNC(=N)N)C(=O)N[C@@H](CCCCN)C(=O)N[C@@H]([C@@H](C)O)C(=O)N2)NC(=O)[C@H](CCCNC(=N)N)NC(=O)[C@H](CO)NC(=O)[C@H](CCCCN)NC(=O)[C@@H]2CCCN2C(=O)[C@H]([C@@H](C)CC)NC(=O)[C@H]([C@@H](C)O)NC(=O)[C@H](CC(=O)O)NC1=O [[Glu20]ShK] | 100 | – | 92 | 92
5 | CCCC[C@@H]1NC(=O)[C@H](CO)NC(=O)[C@H](Cc2c[nH]cn2)NC(=O)[C@H](CCC(=O)O)NC(=O)[C@@H]2CSSC[C@@H]3NC(=O)[C@H]([C@@H](C)O)NC(=O)[C@H](CCCCN)NC(=O)[C@H](CCCNC(=N)N)NC(=O)[C@H](CSSC[C@H](NC(=O)[C@H](CCCNC(=N)N)NC(=O)[C@H](CO)NC(=O)[C@H](CCCCN)NC(=O)[C@@H]4CCCN4C(=O)[C@H]([C@@H](C)CC)NC(=O)[C@H]([C@@H](C)O)NC(=O)[C@H](CC(=O)O)NC(=O)[C@H](CCC(=O)O)NC(=O)[C@@H](NC(=O)[C@H](CO)NC(=O)[C@@H](N)CCCNC(=N)N)CSSC[C@@H](C(N)=O)NC(=O)[C@H]([C@@H](C)O)NC(=O)CNC3=O)C(=O)N[C@@H]([C@@H](C)O)C(=O)N[C@@H](C)C(=O)N[C@@H](Cc3ccccc3)C(=O)N[C@@H](CCCCN)C(=O)N2)NC(=O)[C@H](Cc2ccccc2)NC(=O)[C@H](CO)NC(=O)[C@H](CC(C)C)NC(=O)[C@H](CCCNC(=N)N)NC(=O)[C@H](Cc2ccc(O)cc2)NC(=O)[C@H](CCCCN)NC1=O [[Glu4,18, Lys16,Nle21]ShK-amide] | 0.239 | 0.934 | 0.603 | –
6 | CC[C@H](C)[C@@H]1NC(=O)[C@@H](NC(=O)[C@H](CO)NC(=O)[C@@H](N)CCCNC(=N)N)CSSC[C@@H](C(N)=O)NC(=O)[C@H]([C@@H](C)O)NC(=O)CNC(=O)[C@@H]2CSSC[C@@H]3NC(=O)[C@H](CCCCN)NC(=O)[C@H](Cc4ccccc4)NC(=O)[C@H](C)NC(=O)[C@H]([C@@H](C)O)NC(=O)[C@H](CSSC[C@H](NC(=O)[C@H](Cc4ccccc4)NC(=O)[C@H](CO)NC(=O)[C@H](CC(C)C)NC(=O)[C@H](CCCNC(=N)N)NC(=O)[C@H](Cc4ccc(O)cc4)NC(=O)[C@H](CCCCN)NC(=O)[C@H](CC4CCCCC4)NC(=O)[C@H](CO)NC(=O)[C@H](Cc4c[nH]cn4)NC(=O)[C@H](CCCCN)NC3=O)C(=O)N[C@@H](CCCNC(=N)N)C(=O)N[C@@H](CCCCN)C(=O)N[C@@H]([C@@H](C)O)C(=O)N2)NC(=O)[C@H](CCCNC(=N)N)NC(=O)[C@H](CO)NC(=O)[C@H](CCCCN)NC(=O)[C@@H]2CCCN2C(=O)[C@H]([C@@H](C)CC)NC(=O)[C@H]([C@@H](C)O)NC(=O)[C@H](CC(=O)O)NC1=O [[Lys16, Cha21]ShK-amide] | 0.499 | 1.32 | 1.74 | –
7 | CC[C@H](C)[C@@H]1NC(=O)[C@@H](NC(=O)[C@H](CO)NC(=O)[C@@H](N)CCCNC(=N)N)CSSC[C@@H](C(=O)O)NC(=O)[C@H]([C@@H](C)O)NC(=O)CNC(=O)[C@@H]2CSSC[C@@H]3NC(=O)[C@H](CCCCN)NC(=O)[C@H](Cc4ccccc4)NC(=O)[C@H](C)NC(=O)[C@H]([C@@H](C)O)NC(=O)[C@H](CSSC[C@H](NC(=O)[C@H](Cc4ccccc4)NC(=O)[C@H](CO)NC(=O)[C@H](CC(C)C)NC(=O)[C@H](CCCNC(=N)N)NC(=O)[C@H](Cc4ccc(O)cc4)NC(=O)[C@H](CCCCN)NC(=O)[C@H](CCSC)NC(=O)[C@H](CO)NC(=O)[C@H](Cc4c[nH]cn4)NC(=O)[C@H](CCCCN)NC3=O)C(=O)N[C@@H](CCCCN)C(=O)N[C@@H](CCCCN)C(=O)N[C@@H]([C@@H](C)O)C(=O)N2)NC(=O)[C@H](CCCNC(=N)N)NC(=O)[C@H](CO)NC(=O)[C@H](CCCCN)NC(=O)[C@@H]2CCCN2C(=O)[C@H]([C@@H](C)CC)NC(=O)[C@H]([C@@H](C)O)NC(=O)[C@H](CC(=O)O)NC1=O [[Lys16, Lys29]ShK] | 0.071 | 0.143 | 0.112 | –
8 | CC[C@H](C)[C@@H]1NC(=O)[C@@H](NC(=O)[C@H](CO)NC(=O)[C@@H](N)CCCNC(=N)N)CSSC[C@@H](C(N)=O)NC(=O)[C@H]([C@@H](C)O)NC(=O)CNC(=O)[C@@H]2CSSC[C@@H]3NC(=O)[C@H](CCCCN)NC(=O)[C@H](Cc4ccccc4)NC(=O)[C@H](C)NC(=O)[C@H]([C@@H](C)O)NC(=O)[C@H](CSSC[C@H](NC(=O)[C@H](Cc4ccccc4)NC(=O)[C@H](CO)NC(=O)[C@H](CC(C)C)NC(=O)[C@H](CCCNC(=N)N)NC(=O)[C@H](Cc4ccc(O)cc4)NC(=O)[C@H](CCCCN)NC(=O)[C@H](CCSC)NC(=O)[C@H](CO)NC(=O)[C@H](Cc4c[nH]cn4)NC(=O)[C@H](CCCCN)NC3=O)C(=O)N[C@@H](CCCCN)C(=O)N[C@@H](C)C(=O)N[C@@H]([C@@H](C)O)C(=O)N2)NC(=O)[C@H](CCCNC(=N)N)NC(=O)[C@H](CO)NC(=O)[C@H](CCCCN)NC(=O)[C@@H]2CCCN2C(=O)[C@H]([C@@H](C)CC)NC(=O)[C@H]([C@@H](C)O)NC(=O)[C@H](CC(=O)O)NC1=O [[Lys16, 29;A1a30]ShK-amide] | 0.197 | 0.289 | 0.186 | –
